Data: paper PMC7876453, “Targeting Indoleamine 2,3-Dioxygenase in Cancer Models Using the Novel Small Molecule Inhibitor NTRC 3883-0” (Frontiers in Immunology, 2021)
Read-outs that look alike come from different tables or passages of the source.

Experiments:
human TDO = target: T1, human TDO (Homo sapiens, UniProt P48775); test: human TDO biochemical assay (NFK GreenScreen); conditions: biochemical
T1 construct: hexahistidine (C); made in house; host or cells: Escherichia coli
Description: (§1) Full-length recombinant human and mouse IDO1 were expressed in Escherichia coli with a hexahistidine tag at the N-terminus, and purified by affinity chromatography to > 95% purity, as described ([8]). Human and mouse TDO containing a C-terminal hexahistidine tag were analogously expressed and purified to > 95% purity ([8]). The inhibitory activity of compounds was determined with the NFK GreenScreen assay technology under the conditions as described ([8]), except for the reaction buffer for IDO1, which was replaced by 50 mM NaH2PO4, pH 7.0, supplemented with 0.01% Tween-20 and 1% glycerol. Inhibition of the CYP3A4 and CYP2D6 enzymes was determined with the P450-Glo™ Screening System with Luciferin-IPA (Promega, #V9920 and V9890). For determination of IC50 values, the effect of inhibitors was determined in 10-point duplicate dose-response curves. Graphs were fitted to a four-parameter logistics equation in XLfit (ID Business Solutions, Ltd., Guildford, UK) from which IC50 values were calculated.

mIDO1 = target: T2, mIDO1 (Mus musculus, UniProt P28776); test: mouse IDO1 biochemical assay (NFK GreenScreen)
T2 construct: Full-length recombinant human and mouse IDO1 were expressed in Escherichia coli with a hexahistidine tag at the N-terminus; hexahistidine (N); made in house; host or cells: Escherichia coli
T2 sequence (P28776 whole entry): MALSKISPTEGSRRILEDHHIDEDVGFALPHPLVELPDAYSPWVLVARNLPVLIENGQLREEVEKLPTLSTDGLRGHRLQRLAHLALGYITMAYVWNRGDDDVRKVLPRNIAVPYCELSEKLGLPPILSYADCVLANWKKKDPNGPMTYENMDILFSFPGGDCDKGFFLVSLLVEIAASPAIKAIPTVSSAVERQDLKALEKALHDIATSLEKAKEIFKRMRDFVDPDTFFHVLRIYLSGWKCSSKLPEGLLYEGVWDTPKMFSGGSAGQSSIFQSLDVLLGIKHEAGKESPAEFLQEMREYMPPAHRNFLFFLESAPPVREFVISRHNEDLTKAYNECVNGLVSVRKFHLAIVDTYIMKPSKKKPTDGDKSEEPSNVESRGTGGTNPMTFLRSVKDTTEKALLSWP

mTDO = target: T3, mTDO (Mus musculus, UniProt P48776); test: mouse TDO biochemical assay (NFK GreenScreen); conditions: biochemical; @ 31,600 nM
T3 construct: hexahistidine (C); made in house; host or cells: Escherichia coli
T3 sequence (P48776 whole entry): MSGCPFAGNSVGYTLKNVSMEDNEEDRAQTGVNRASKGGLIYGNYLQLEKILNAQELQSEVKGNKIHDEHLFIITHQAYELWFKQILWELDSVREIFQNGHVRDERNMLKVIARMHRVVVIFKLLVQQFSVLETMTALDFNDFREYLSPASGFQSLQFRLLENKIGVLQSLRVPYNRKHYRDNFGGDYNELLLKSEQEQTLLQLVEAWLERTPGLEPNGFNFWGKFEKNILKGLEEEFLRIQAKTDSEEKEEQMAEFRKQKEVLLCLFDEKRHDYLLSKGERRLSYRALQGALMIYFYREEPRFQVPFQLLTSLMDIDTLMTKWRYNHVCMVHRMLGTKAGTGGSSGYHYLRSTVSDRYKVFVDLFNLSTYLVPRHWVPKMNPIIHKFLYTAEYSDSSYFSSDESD
Description: as §1

A375 + IFNγ (hIDO1) = target: T4, A375 + IFNγ (hIDO1) (Homo sapiens, UniProt P14902); test: cell-based assay, Trp-catabolizing activity in IFNγ-stimulated A375 cells; conditions: IFNγ-stimulated A375 human melanoma cells
T4 construct: host or cells: A375 cells stimulated with IFNγ
T4 sequence (P14902 whole entry): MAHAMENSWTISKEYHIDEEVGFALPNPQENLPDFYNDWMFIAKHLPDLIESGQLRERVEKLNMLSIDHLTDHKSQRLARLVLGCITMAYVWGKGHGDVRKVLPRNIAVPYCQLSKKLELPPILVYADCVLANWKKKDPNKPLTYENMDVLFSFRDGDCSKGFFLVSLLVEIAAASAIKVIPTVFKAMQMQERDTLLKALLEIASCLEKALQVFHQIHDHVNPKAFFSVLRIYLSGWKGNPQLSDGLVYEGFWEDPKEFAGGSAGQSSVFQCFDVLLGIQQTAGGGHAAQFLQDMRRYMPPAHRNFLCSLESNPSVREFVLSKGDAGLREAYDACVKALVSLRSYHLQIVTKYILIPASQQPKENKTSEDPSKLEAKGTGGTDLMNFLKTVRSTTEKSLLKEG

CYP3A4 = target: T5, CYP3A4 (Homo sapiens, UniProt P08684); test: CYP3A4 inhibition (P450-Glo); format: in vitro ADME; conditions: 10 µM
T5 construct: purchased Promega V9920
T5 sequence (P08684 whole entry): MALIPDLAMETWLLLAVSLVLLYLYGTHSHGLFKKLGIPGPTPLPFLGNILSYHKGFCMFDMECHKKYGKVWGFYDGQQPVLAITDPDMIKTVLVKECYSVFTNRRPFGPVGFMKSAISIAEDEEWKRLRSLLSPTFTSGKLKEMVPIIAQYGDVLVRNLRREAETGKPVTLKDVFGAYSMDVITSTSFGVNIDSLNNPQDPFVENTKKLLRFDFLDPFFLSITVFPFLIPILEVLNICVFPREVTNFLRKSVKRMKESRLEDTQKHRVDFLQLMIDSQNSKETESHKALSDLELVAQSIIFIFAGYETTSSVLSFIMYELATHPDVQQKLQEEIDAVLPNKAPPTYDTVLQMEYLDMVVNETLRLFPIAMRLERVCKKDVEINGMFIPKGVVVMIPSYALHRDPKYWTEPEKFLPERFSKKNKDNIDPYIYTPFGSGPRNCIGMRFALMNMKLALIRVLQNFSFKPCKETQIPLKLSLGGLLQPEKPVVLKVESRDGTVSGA
Description: as §1

[1] = test system: panel of 44 pharmacologically relevant receptors, ion channels, transporters and enzymes; test: Eurofins-CEREP selectivity panel; conditions: 10 µM
[2] = test system: cell lines used in this study; test: cell viability assays (ATPlite 1Step); conditions: in parallel with the cell-based assays
[3] = test system: B16F10-mIDO1 subline j19 in female B6D2F1 mice; test: B16F10-mIDO1 syngeneic mouse model, intervention study; format: in vivo
From the text: For development of the mIDO1-overexpressing B16F10 mouse model, performed at Charles River Laboratories, female B6D2F1 mice were implanted subcutaneously with 1 × 10^6 parental B16F10 cells or B16F10-mIDO1 cells (subline i6 or j19) on day 0 with n = 10 mice per group. A tumor volume of 2000 mm^3 was used as the endpoint of the experiment for the individual animals. To determine the optimal inoculation cell concentration, mice were implanted with 3 × 10^5, 1 × 10^5 or 3 × 10^4 parental or mIDO1-overexpressing B16F10 cells (subline j19) with n = 5 mice per group. The same endpoint of the experiment was used as described above. […] For the intervention study, 3 x 10^5 cells of the B16F10-mIDO1 subline j19 were implanted on day 0, and treatment was started on day 3 with vehicle (DMSO, Kolliphor, 5% mannitol; […]. Four animals were excluded from analysis due to non-treatment-related deaths. Tumors and plasma were sampled 2 h post last dose.
[…]. After centrifugation, proteins were removed from the homogenized tissue supernatants and plasma samples by precipitation with methanol. The concentrations of inhibitor, Trp and Kyn were determined by LC-MS/MS.

[4] = in vivo pharmacokinetics, mouse; set-up: species or system male CD-1 mice; conditions: male; for clearance / Vd: intravenous; for Vd: read-out: Vss
Description: (§2) Pharmacokinetic properties of NTRC 3883-0 were determined in plasma following single oral (p.o.) and i.v. administration to male CD-1 mice (n = 6 per treatment group with three mice sampled per time point), Wistar rats (n = 3), cynomolgus monkey (n = 1) and Beagle dogs (n = 3). Formulations were prepared in DMSO, Kolliphor® EL, 5% D-mannitol in Elix water at a volume ratio of 1:1:8 for i.v. administration, and in 0.5% gelatin, 5% D-mannitol in Elix water for p.o. administration. Plasma samples were collected at eight to eleven time points up to 24 h after administration. Pharmacokinetic properties and required dosing in humans were predicted by allometric scaling by Karin Jorga Life Science Consulting (Basel, Switzerland) ( Figure S2 and Table S2 ).

[5] = in vivo pharmacokinetics, rat; set-up: species or system Wistar rats; conditions: Wistar, plasma; for clearance / Vd: intravenous; for Vd: read-out: Vss
Description: as §2

[6] = test system: IFNγ-stimulated adherent cell samples isolated from ascites of ovarian cancer patients; test: Trp-catabolizing activity in IFNγ-stimulated ascites cell samples; format: cell-based; conditions: Homo sapiens
Description: Ascites was collected from patients with a primary diagnosis of advanced epithelial ovarian cancer during paracentesis for diagnostics or symptom relieve, or during primary debulking surgery. Ascites was filtered and cells were collected by centrifugation as described ([23]). To enrich for tumor cells, ascites cell samples were allowed to adhere overnight to tissue culture plastic. The cell samples were then cultured for 2–3 weeks in advanced RPMI medium (ThermoFisher), supplemented with 10% FBS, 1% glutamax and 1% P/S, with 2 or 3 times passaging of the cells. qPCR analyses of the MUC16, HE4, IDO1, and TDO2 genes were performed for all samples as described above. Five samples which could be cultured over multiple passages were analyzed for cell surface expression of mucin-16 and EpCAM by flow cytometry using FITC-conjugated anti-mucin-16 (AssayPro, #32189-05141) and APC-conjugated anti-EpCAM (Miltenyi, #130-111-117, RRID: AB_2657496) to assure that the cell cultures consisted of malignant cells. IDO1 mRNA and protein levels in these samples were analyzed as described above after incubation with or without 200 ng/ml IFNγ for 24 h. The collection of ascites and the research described was conducted with approval of the medical ethical committee of the Radboud university medical center and informed written consent from each subject.

HEK-hIDO1 = HEK-hIDO1 (Homo sapiens, UniProt P14902); test: cell-based assay, Trp-catabolizing activity in HEK-hIDO1 cells
Chain of HEK-hIDO1 (P14902 whole entry): as the sequence (P14902 whole entry) above

[7] = 100 mg/kg p.o. b.i.d. from day 3
[8] = 100 mg/kg p.o. b.i.d., 2 h post last dose
[9] = CD-1, plasma, mouse, body weight 0.036 kg

T1 sequence (P48775 whole entry): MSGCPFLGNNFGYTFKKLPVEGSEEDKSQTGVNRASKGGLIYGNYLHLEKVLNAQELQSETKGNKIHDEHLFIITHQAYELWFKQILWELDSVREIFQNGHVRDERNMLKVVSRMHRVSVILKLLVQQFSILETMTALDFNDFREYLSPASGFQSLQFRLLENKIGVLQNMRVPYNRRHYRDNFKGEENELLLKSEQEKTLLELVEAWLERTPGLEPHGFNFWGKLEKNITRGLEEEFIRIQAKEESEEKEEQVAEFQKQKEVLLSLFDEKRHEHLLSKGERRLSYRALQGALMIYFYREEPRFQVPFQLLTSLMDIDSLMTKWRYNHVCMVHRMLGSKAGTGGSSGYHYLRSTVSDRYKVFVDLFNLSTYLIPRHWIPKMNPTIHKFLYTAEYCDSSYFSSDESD

In the case of O=C1CN(C(=O)c2c(F)cccc2F)[C@H](c2cccc(Br)c2)N1O [NTRC 3883-0], the inhibition at 31.6 µM (human TDO; @ 31,600 nM, read-out: inhibition hTDO) is reported as < 20%, the “activity on human TDO (in words)” value (human TDO; highest tested concentration 31.6 µM) is reported as “inactive” and the IC50 (mIDO1) is reported as 93 nM. The inhibition at 31.6 µM (mTDO) was < 20%, the IC50 (A375 + IFNγ (hIDO1)) was 182 nM and the “inhibition of CYP3A4 activity” value (CYP3A4) was “did not inhibit”. The “cross-reactivities in panel of 44 targets” value [1] was “no cross-reactivities”, the cytotoxicity [2] was “not cytotoxic” and the “times lower intratumoral levels of Kyn compared to epacadostat” value ([3]; 100 mg/kg p.o. b.i.d.) was 3.6 times. For the same compound, the “tumor growth corrected for the variation in time until tumor establishment” value [3, 7] was “delay in tumor growth”, the “tumor growth in comparison to vehicle-treated animals” value [3, 7] was “no effect” and the “times lower inhibitor level in plasma compared to epacadostat” value [3, 8] was 1.8 times. For the same compound, the “times lower inhibitor level in the tumors compared to epacadostat” value [3, 8] was 2.2 times, the “intratumoral Trp levels” value ([3]; 100 mg/kg p.o. b.i.d., LC-MS/MS) was “slightly more efficient in increasing Trp” and the half-life ([4]; CD-1, mouse, plasma) was 5.2 h. It also gave a clearance ([4]; CD-1, mouse, plasma) of 18.5 mL/min/kg, a Vd ([4]; CD-1, mouse, plasma) of 3.63 L/kg and a clearance [4, 9] of 0.667 mL/min. It also gave a Vd [4, 9] of 0.131 L, a half-life [5] of 3.3 h and a clearance [5] of 19.1 mL/min/kg. It also gave a clearance ([5]; body weight 0.29 kg) of 5.52 mL/min, a Vd ([5]; body weight 0.29 kg) of 0.417 L and a Vd [5] of 1.43 L/kg. For the same compound, the bioavailability ([5]; po, p.o. versus i.v., read-out: Bioavailability (F)) was 91%, the IC50 ([6]; IFNγ-stimulated samples, read-out: IC50) was 261 nM and the IC50 ([6]; IFNγ-stimulated, read-out: IC50 ASC 009) was 236 nM. It also gave an IC50 ([6]; IFNγ-stimulated, read-out: IC50 ASC 010) of 294 nM, an IC50 ([6]; IFNγ-stimulated, read-out: IC50 ASC 013) of 237 nM and an IC50 ([6]; IFNγ-stimulated, read-out: IC50 ASC 031) of 271 nM. For the same compound, the IC50 ([6]; IFNγ-stimulated, read-out: IC50 ASC 041) was 321 nM and the IC50 (HEK-hIDO1) was 119 nM.
